Test results from US4461724A, “Peptide compounds, a process for manufacturing them, pharmaceutical compositions containing them, and methods for treating ulcer and thrombus with them” (Nippon Zoki Pharmaceutical Co., Ltd., priority 1981, dated 1984).
Square brackets hold non-standard residues; d marks the D form. Peptide text beside a SMILES is read from it. pGlu = O=C1CC[C@@H](C(=O)O)N1

Legend:
[1] = tested on: histamine-induced ulcer in rats; assay: Histamine-induced ulcer inhibiting effect (Table 1); format: in vivo, Wister strain male rats; settings: histamine dihydrochloride 300 mg/kg i.p., 4 hours; for Ulcer coefficient (total surface area of ulcer lesion): mean ± S.E., control 28.4 ± 3.2
Protocol: Groups each consisting of 10 Wister strain male rats (120-130 g) were starved for 24 hours, and the drug to be tested were intravenously administered (i.v.). Immediately thereafter, according to the method by Bucher et al. [Bucher, F. et al., Beitr. Path. Anat. 81, 391 (1928)], 300 mg/kg of histamine dihydrochloride was administered intraperitoneally (i.p.). Four hours later, each animal was decapitated to bleed, and the stomach was removed. 6 ml of physiological saline was infused into the removed stomach, which was then dipped in 10% formalin for 10 minutes. Then, the stomach was incised along the greater curvature. The ulcer appeared on the stomach mucous membrane was observed on a stereoscopic microscope to measure the surface area of the ulcer lesion, and the total area was designated as the ulcer coefficient.

[2] = tested on: ADP Induced Hemagglutination; assay: Antithrombotic effect (I): ADP induced hemagglutination in plasma of dosed rats; format: in vivo, Wister strain male rats; settings: ADP as coagulant; for Transmittance: mean ± S.E., control 62.9 ± 6.3
Protocol: (§1) Groups each consisting of 10 Wister strain male rats (120-160 g) were administered with the drug to be tested through the tail vein, and 5 minutes later, blood was taken under etherized conditions at a ratio to 3.8% aqueous sodium citrate solution of 1/10. This was centrifugally separated into platelet rich plasma (PRP) and platelet poor plasma (PPP). Using ADP or collagen as the coagulant, the reaction was effected at 37° C. The transmittance of the plasma with the coagulant and drug to be tested was measured using PRP and PPP as the standards, compared with the control, and the percent inhibition was calculated. As the comparative drug, ticlopidine was orally administered.

[3] = tested on: thrombus on silk thread in extracorporeal shunt of rats; assay: Antithrombotic effect (II): extracorporeal shunt with silk thread, thrombus wet weight; format: in vivo, Wister strain male rats; settings: 20 minute circulation; for Thrombosis wet weight: mean ± S.E., control 38.1 ± 3.4
Protocol: The present pharmacological test was conducted according to the method by T. Umetsu et al. [Thrombosis and Haemostasis, 39, 74-83 (1978)]. Groups each consisting of 10 Wister strain male rats were anesthetized by intraperitoneal administration of 50 mg/kg of sodium pentobarbital. An extracorporeal shunt prepared by connecting cannula polyethylene tubes to both ends of a polyethylene tube into which a silk thread had been inserted was filled with heparin, the both ends were then inserted into the dissected and exposed left jugular vein and right carotid artery. Thereafter, blood circulation was started. The drug to be tested was intravenously administered one minute before the start of blood circulation. Aspirin was orally administered as a comparative drug. After 20 minute blood circulation, the wet weight of the thrombus coated to the silk thread was weighed, and the inhibition rate was calculated.

[4] = tested on: Collagen Induced Hemagglutination; assay: Antithrombotic effect (I): collagen induced hemagglutination in plasma of dosed rats; format: in vivo, Wister strain male rats; settings: collagen as coagulant; for Transmittance: mean ± S.E., control 52.5 ± 7.1
Protocol: as §1

[5] = tested on: acetic acid-induced ulcer in rats; assay: Acetic acid-induced (chronic) ulcer inhibiting effect; format: in vivo; settings: once a day for 10 days
Protocol: The effect of the peptide compound of this invention on chronic ulcer was examined according to the method by Takagi et al. [Takagi, K. et al., Japan J. Pharmacol., 19, 418 (1970)]. That is, 0.025 ml of 30% acetic acid was injected to the stomach serous membrane in rats, and for 10 days thereafter, the peptide compound of this invention (Compound 25) was intravenously administered once a day. Gefarnate and secretin both employed as the comparative drugs were similarly intramuscularly administered (i.m.).

[6] = tested on: restraint and water immersion stress ulcer in rats; assay: (A) Restraint and water immersion stress ulcer inhibiting effect; format: in vivo; settings: stress 25° C., 4 hours, drug once before stress
Protocol: (§2) The peptide compound of this invention (Compound 25) and cimetidine and atropine both employed as the comparative drugs were intravenously administered.
According to the method by Takagi et al. [Takagi, K. et al., Chem. Pharm. Bull., 12, 465 (1964)], the effect on the ulcer in rats induced by stress due to restraint and immersing in water in wire cages (25° C., 4 hours) was examined. The drugs to be tested were administered once before loading the stress.

[7] = tested on: aspirin-induced ulcer in rats; assay: (B) Aspirin-induced ulcer inhibiting effect; format: in vivo; settings: drug once before oral aspirin 200 mg/kg
Protocol: 4. […] According to the method by Brodie et al. [Brodie, D. A. & Chase, B. J., Gastroenterology, 53, 604 (1967)], the drug to be tested was orally administered to rats once before the oral administration of 200 mg/kg of aspirin.

[8] = tested on: histamine-induced ulcer in rats; assay: (C) Histamine-induced ulcer inhibiting effect (ID50); format: in vivo; settings: drug once before histamine 300 mg/kg
Protocol: 4. […] According to the method by Bucher et al. [ Bucher, F. et al., Beitr. Path. Anat., 81, 391 (1928)], the drug to be tested was intraperitoneally administered to rats once before the oral administration of 300 mg/kg of histamine.

[9] = tested on: cortisone-induced ulcer in rats; assay: (D) Cortisone-induced ulcer inhibiting effect; format: in vivo; settings: starved rats, cortisone acetate 20 mg/kg s.c. and drug once a day for 4 days
Protocol: as §2
According to the method by Robert et al. [Robert, A & Nezamis, J. E., Proc. Soc. Exptl. Biol. Med., 99, 443 (1958)], rats were starved, and 20 mg/kg of cortisone acetate was subcutaneously administered once a day for 4 days to induce ulcer. The drug to be tested was also administered simultaneously with the cortisone acetate once a day for 4 days.

[10] = tested on: cysteamine-induced duodenal ulcer in rats; assay: (E) Cysteamine-induced duodenal ulcer inhibiting effect; format: in vivo; settings: drug once before cysteamine hydrochloride 400 mg/kg
Protocol: as §2
According to the method by Robert at al. [Robert, H. et al., Digestion, 11, 199 (1974)], 400 mg/kg of cysteamine hydrochloride was administered to rats to induce duodenal ulcer. The drug to be tested was administered once before the administration of the cysteamine.

[11] = tested on: pylorus ligation ulcer in rats; assay: Pylorus ligation ulcer inhibiting effect; format: in vivo, Wister strain male rats; settings: 1 mg/kg i.p., 18 hours after pylorus ligation, mean ± S.E., control 4.5 ± 0.3
Protocol: Groups each consisting of 10 Wister strain male rats were starved for 24 hours, and the pylorus was ligatured under etherized conditions. The peptide compound of this invention (Compound 25) was intraperitoneally administered. Eighteen hours later, the stomach was removed and cut open. The ulcer appeared on the rumen was evaluated using 6-ranked ulcer index according to the method by Narumi et al. [A. Narumi, et al., J. Takeda Res. Lab., 29, 85 (1970)].

[12] = 10 mg/kg via tail vein, blood taken 5 minutes later
[13] = 1 mg/kg i.v. one minute before circulation
[14] = 10 mg/kg i.v. one minute before circulation

In the case of `NCCCC[C@H](NC(=O)[C@H](Cc1c[nH]cn1)NC(=O)[C@H](CO)NC(=O)[C@@H]1CCC(=O)N1)C(=O)O` [Compound 28, (pyr)Glu-Ser-His-Lys] ([pGlu]SHK-OH), the “Inhibition rate (%)” value ([1]; 20 mg/kg i.v.) is reported as 57.0%, the “Ulcer coefficient (total surface area of ulcer lesion)” value (from here on “Ulcer coefficient”) ([1]; 20 mg/kg i.v.) is reported as 12.2 ± 2.6 and the “Inhibition rate (%)” value [2, 12] is reported as 57.9%. It also gave a Transmittance [2, 12] of 26.5 ± 7.2.
In the case of `CC(=O)Oc1ccccc1C(=O)O` [Aspirin], the “Thrombosis wet weight” value ([3]; 100 mg/kg orally) is reported as 22.3 ± 3.2 mg and the inhibition at 100 mg/kg ([3]; Rattus norvegicus, po, 20 min, 100 mg/kg orally, read-out: Inhibition rate (%)) is reported as 41.5%.
Work on `Clc1ccccc1CN1CCc2sccc2C1` [Thichlopidine, ticlopidine] yielded a Transmittance ([2]; 100 mg/kg orally) of 41.6 ± 10.4, an inhibition at 100 mg/kg ([2]; Rattus norvegicus, po, 100 mg/kg orally, read-out: Inhibition Rate (%)) of 33.9% and an inhibition at 100 mg/kg ([4]; Rattus norvegicus, po, 100 mg/kg orally, read-out: Inhibition rate (%)) of 34.1%. It also gave a Transmittance ([4]; 100 mg/kg orally) of 34.6 ± 10.8.
secretin was tested, and the “ID50 acetic acid-induced ulcer” value ([5]; intramuscular) was > 100 U/kg, i.m.
In the case of `CN1[C@@H]2CC[C@H]1C[C@@H](OC(=O)C(CO)c1ccccc1)C2` (stereo partly drawn) [Atropine, atropine], the “ID50 (A) restraint and water immersion stress ulcer” value [6] is reported as 0.4 mg/kg, i.v, the “ID50 (B) aspirin-induced ulcer” value [7] is reported as 0.52 mg/kg, i.v and the “ID50 (C) histamine-induced ulcer” value [8] is reported as 0.35 mg/kg, i.v. For the same compound, the “ID50 (D) cortisone-induced ulcer” value [9] was 0.25 mg/kg, i.v and the “ID50 (E) cysteamine-induced duodenal ulcer” value [10] was 0.35 mg/kg, i.v.
In the case of `CC(C)=CCC/C(C)=C/CC/C(C)=C/CCC(=O)OC/C=C(\C)CCC=C(C)C` [Gefarnate], the “ID50 acetic acid-induced ulcer” value ([5]; intramuscular) is reported as 250 mg/kg, i.m.
In the case of `CN/C(=N/CCSCc1nc[nH]c1C)NC#N` [Cimetidine, cimetidine], the “Ulcer coefficient” value ([1]; 25 mg/kg i.v.) is reported as 10.9 ± 1.9, the inhibition at 25 mg/kg ([1]; Rattus norvegicus, 25 mg/kg i.v., read-out: Inhibition rate (%)) is reported as 61.6% and the “ID50 (A) restraint and water immersion stress ulcer” value [6] is reported as 37.0 mg/kg, i.v. For the same compound, the “ID50 (B) aspirin-induced ulcer” value [7] was 39.0 mg/kg, i.v, the “ID50 (C) histamine-induced ulcer” value [8] was 17.0 mg/kg, i.v and the “ID50 (D) cortisone-induced ulcer” value [9] was 28.0 mg/kg, i.v. The “ID50 (E) cysteamine-induced duodenal ulcer” value [10] was 26.0 mg/kg, i.v.
In the case of `NCCCC[C@H](NC(=O)[C@H](Cc1c[nH]cn1)NC(=O)[C@H](CO)NC(=O)CN)C(=O)O` [Compound 25, Gly-Ser-His-Lys.CH3 COOH.H2 O] (H-GSHK-OH), the “Inhibition rate (%)” value ([1]; 20 mg/kg i.v.) is reported as 79.9%, the “Ulcer coefficient” value ([1]; 20 mg/kg i.v.) is reported as 5.7 ± 2.6 and the “Ulcer index (6-ranked)” value [11] is reported as 3.1 ± 0.5. For the same compound, the “ID50 (A) restraint and water immersion stress ulcer” value [6] was 4.2 mg/kg, i.v, the “ID50 (B) aspirin-induced ulcer” value [7] was 5.0 mg/kg, i.v and the “ID50 (C) histamine-induced ulcer” value [8] was 6.0 mg/kg, i.v. For the same compound, the “ID50 (D) cortisone-induced ulcer” value [9] was 1.85 mg/kg, i.v, the “ID50 (E) cysteamine-induced duodenal ulcer” value [10] was 5.0 mg/kg, i.v and the “ID50 acetic acid-induced ulcer” value ([5]; intravenous) was 1.0 mg/kg, i.v. The Transmittance ([4]; 10.0 mg/kg via tail vein, 10 mg/kg) was 14.8 ± 4.9, the “Inhibition rate (%)” value ([4]; 10 mg/kg) was 71.8% and the “Inhibition rate (%)” value [3, 13] was 27.3%. For the same compound, the “Thrombosis wet weight” value [3, 13] was 27.7 ± 4.0 mg, the “Inhibition rate (%)” value [3, 14] was 44.1% and the “Thrombosis wet weight” value [3, 14] was 21.3 ± 3.3 mg.
